Here are results for 13 compounds from patent US20160046618A1, “Cyclopropyl Fused Thiazin-2-Amine Compounds as Beta-Secretase Inhibitors and Methods of Use” (AMGEN INC., priority 2014, published 2016).

The target of one test is human recombinant BACE1 (Homo sapiens (Human), UniProt P56817). As to the kind of experiment: In vitro enzymatic BACE1 FRET assay. The format is biochemical. The conditions noted are these: read-out: IC50 IP (μM) BACE1 enzyme. The gist of the method: (§1)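 Tris addition raises the pH to neutral to stop the reaction before fluorescence is measured at 590 nm emission with 488 nm excitation.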
human recombinant BACE1, sequence (P56817 46-501): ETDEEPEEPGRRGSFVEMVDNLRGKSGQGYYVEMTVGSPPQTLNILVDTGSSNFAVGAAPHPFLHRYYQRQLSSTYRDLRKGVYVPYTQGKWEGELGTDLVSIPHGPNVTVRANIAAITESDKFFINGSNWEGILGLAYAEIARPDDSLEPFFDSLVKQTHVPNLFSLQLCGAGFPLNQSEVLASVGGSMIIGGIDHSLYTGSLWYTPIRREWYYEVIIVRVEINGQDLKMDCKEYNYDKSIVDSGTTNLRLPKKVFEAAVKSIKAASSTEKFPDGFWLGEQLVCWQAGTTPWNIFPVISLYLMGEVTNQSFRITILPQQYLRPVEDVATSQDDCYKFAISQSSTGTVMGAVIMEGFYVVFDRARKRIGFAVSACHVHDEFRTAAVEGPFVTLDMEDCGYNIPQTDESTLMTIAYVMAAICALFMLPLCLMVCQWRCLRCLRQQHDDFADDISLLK

The target of another test is human recombinant BACE2 (Homo sapiens (Human), UniProt Q9Y5Z0). As to the kind of experiment: In vitro enzymatic BACE2 FRET assay. The settings on record: read-out: IC50 IP (μM) BACE2 enzyme. The format is biochemical. In short, it runs like this:
as §1

In test [1] the test system is Aβ40 in conditioned medium of cells stably expressing Amyloid Precursor Protein (APP). As to the kind of experiment: In vitro BACE-1 cell-based assay (Aβ40 sandwich ELISA). The conditions noted are these: read-out: IC50 IP (μM) BACE1 cell. In short, it runs like this: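 Read-out: time-resolved fluorescence (Streptavidin-Europium) of Aβ40 captured by pAb40 and detected with biotinylated 6E10 from supernatants of APP-stable cells. Cells were exposed to compound for 24 h, 10-point dose response, top dose 100 μM or 10 μM, 0.1% DMSO. IC50 fitted to percent of control.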
A general note: ELISA stands for enzyme-linked immunosorbent assay.

The target of the next test is Recombinant Cat D (Homo sapiens (Human), UniProt P07339). Put plainly: In vitro enzymatic Cathepsin D (Cat D) FRET assay. The format is biochemical. The settings on record: read-out: IC50 IP (μM) CatD. In short, it runs like this: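 Fluorescence at 500 nm excitation and 580 nm emission reports cleavage of a quenched fluorophore–quencher peptide (20 nM) by CHO-expressed Cat D. Reactions ran one hour in 0.05 M citrate pH 3.5, 5 mM CHAPS, 10% DMSO final before a Tris stop raised pH to neutrality.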
Recombinant Cat D, sequence (P07339 65-412): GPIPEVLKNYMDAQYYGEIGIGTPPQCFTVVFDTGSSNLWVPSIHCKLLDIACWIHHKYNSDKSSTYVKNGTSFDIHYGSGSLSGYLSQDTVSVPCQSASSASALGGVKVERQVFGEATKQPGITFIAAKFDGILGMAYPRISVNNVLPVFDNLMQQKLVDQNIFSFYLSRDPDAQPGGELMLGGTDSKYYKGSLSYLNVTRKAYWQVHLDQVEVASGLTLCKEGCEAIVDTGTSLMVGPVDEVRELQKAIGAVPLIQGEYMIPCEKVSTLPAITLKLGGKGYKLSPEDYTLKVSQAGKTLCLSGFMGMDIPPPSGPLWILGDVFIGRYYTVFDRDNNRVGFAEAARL

The next test has as its system Aβ 40 in rat CSF. As to the kind of experiment: In vivo inhibition of beta-secretase: Aβ40 reduction in rat CSF. The settings on record: after 4 h. In short, it runs like this: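 Male Sprague Dawley rats (200 g) dosed orally in 2% HPMC, 1% Tween80, pH 2.2, at 3, 10 or 30 mg/kg; CSF and brain taken 4 h later. Brain homogenate centrifuged at 355,000 g; Aβ40 measured by ECL sandwich ELISA (4G8 capture, Abeta40 C-terminal Fab detection), as % reduction versus vehicle controls.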

For another test, the system named is Aβ 40 in rat brain. As to the kind of experiment: In vivo inhibition of beta-secretase: Aβ40 reduction in rat brain. The conditions noted are these: after 4 h. The gist of the method:
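Rats were dosed by oral gavage at up to 100 mg/kg in 2% HPMC, 1% Tween80, pH 2.2, with vehicle-only controls. Supernatant Aβ40 was measured by ECL sandwich ELISA with biotinylated-4G8 capture and C-terminal Fab40 detection.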

Like-named read-outs stand apart in the source and are kept apart here.

human recombinant BACE2, sequence (Q9Y5Z0 63-518): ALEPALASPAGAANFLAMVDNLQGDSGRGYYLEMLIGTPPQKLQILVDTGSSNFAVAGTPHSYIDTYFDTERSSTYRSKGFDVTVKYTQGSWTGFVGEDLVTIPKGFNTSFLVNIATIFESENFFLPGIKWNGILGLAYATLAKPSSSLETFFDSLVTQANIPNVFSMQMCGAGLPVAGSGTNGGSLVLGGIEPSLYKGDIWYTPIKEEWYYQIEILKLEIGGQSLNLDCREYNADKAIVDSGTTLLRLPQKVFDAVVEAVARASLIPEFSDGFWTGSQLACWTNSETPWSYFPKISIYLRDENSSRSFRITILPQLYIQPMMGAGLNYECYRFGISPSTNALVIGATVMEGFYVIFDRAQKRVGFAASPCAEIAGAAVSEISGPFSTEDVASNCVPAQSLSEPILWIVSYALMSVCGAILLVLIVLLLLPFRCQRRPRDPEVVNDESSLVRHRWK

Regarding `C#CCOc1cnc(C(=O)Nc2cc(F)c(F)c([C@@]3(C)N=C(N)S[C@H]4C[C@H]43)c2)cn1` [Example 23, N-(3-((1S,5S,6S)-3-amino-5-methyl-2-thia-4-azabicyclo[4.1.0]hept-3-en-5-yl)-4,5-difluorophenyl)-5-(2-propyn-1-yloxy)-2-pyrazinecarboxamide], the 50% inhibitory concentration (IC50) (in general, the concentration at which inhibition is half-maximal) was 0.00047 µM on human recombinant BACE1 (BACE1 FRET enzyme assay), 0.0374 µM on human recombinant BACE2 (BACE2 FRET enzyme assay), 0.00062 µM in test [1] (BACE1 cell-based assay) and 81.9 µM at Recombinant Cat D (Cathepsin D FRET enzyme assay). Also, the “% Aβ 40 reduction in rat CSF (3 mpk)” value in the test with Aβ 40 in rat CSF is listed as 70 (3 mpk) %. For the same compound, in the test on Aβ 40 in rat brain, the “% Aβ 40 reduction in rat brain (3 mpk)” value was 61 (3 mpk) %.

Take `Cc1nc(OCc2ncco2)cnc1C(=O)Nc1cc(F)c(F)c([C@@]2(C)N=C(N)S[C@@]3(CF)C[C@H]32)c1` [Example 803, N-(3-((1S,5S,6S)-3-amino-1-(fluoromethyl)-5-methyl-2-thia-4-azabicyclo[4.1.0]hept-3-en-5-yl)-4,5-difluorophenyl)-3-methyl-5-(1,3-oxazol-2-ylmethoxy)-2-pyrazinecarboxamide]: the IC50 is 0.000643 µM on human recombinant BACE1, 0.0157 µM at human recombinant BACE2, 0.00228 µM in test [1] and 1060 µM on Recombinant Cat D. Moreover, in the test on Aβ 40 in rat CSF, the “% Aβ 40 reduction in rat CSF at 10 mpk” value came out at 59%. Further, the “% Aβ 40 reduction in rat brain at 10 mpk” value with Aβ 40 in rat brain stood at 45%.

With `C#CCOc1cnc2c(Nc3cc(F)c(F)c([C@@]4(C)N=C(N)S[C@@]5(C(=O)NC)C[C@H]54)c3)nccc2n1` [Example 915, (1S,5S,6S)-3-amino-5-(2,3-difluoro-5-((2-(2-propyn-1-yloxy)pyrido[3,4-b]pyrazin-5-yl)amino)phenyl)-N,5-dimethyl-2-thia-4-azabicyclo[4.1.0]hept-3-ene-1-carboxamide], the IC50 was 0.000426 µM on human recombinant BACE1, 0.0101 µM at human recombinant BACE2, 0.00195 µM in test [1] and over 400 µM on Recombinant Cat D. In the test on Aβ 40 in rat CSF, the “% Aβ 40 reduction in rat CSF at 10 mpk” value stood at 51%. Also, the “% Aβ 40 reduction in rat brain at 10 mpk” value in the test on Aβ 40 in rat brain is given as 47%.

With `N#Cc1cnc2c(Nc3ccc(F)c([C@@]4(CF)N=C(N)S[C@H]5CC54)c3)nccc2c1` (stereo in doubt) [Example 38, 8-((3-((1S,5S,6S)-3-amino-5-(fluoromethyl)-2-thia-4-azabicyclo[4.1.0]hept-3-en-5-yl)-4-fluorophenyl)amino)-1,7-naphthyridine-3-carbonitrile], the 50% inhibitory concentration (IC50) is 0.0157 µM at human recombinant BACE1 (BACE1 FRET enzyme assay), 0.00728 µM at human recombinant BACE2 (BACE2 FRET enzyme assay), 0.0144 µM in test [1] (BACE1 cell-based assay) and over 133 µM on Recombinant Cat D (Cathepsin D FRET enzyme assay). Besides, in the test with Aβ 40 in rat CSF, the “% Aβ 40 reduction in rat CSF at 10 mpk” value was determined as 66%. Further, the “% Aβ 40 reduction in rat brain at 10 mpk” value in the test with Aβ 40 in rat brain worked out at 44%.

`C[C@]1(c2cc(Nc3ncnc4cc(C#N)cnc34)cc(F)c2F)N=C(N)S[C@@]2(C(F)F)C[C@@H]12` [Example 95, 4-((3-((1S,5S,6S)-3-amino-1-(difluoromethyl)-5-methyl-2-thia-4-azabicyclo[4.1.0]hept-3-en-5-yl)-4,5-difluorophenyl)amino)pyrido[3,2-d]pyrimidine-7-carbonitrile]: the IC50 is 0.00426 µM at human recombinant BACE1 (BACE1 FRET enzyme assay), 0.00837 µM at human recombinant BACE2 (BACE2 FRET enzyme assay), 0.0138 µM in test [1] (BACE1 cell-based assay) and 133 µM on Recombinant Cat D (Cathepsin D FRET enzyme assay). In addition, the “% Aβ 40 reduction in rat CSF at 10 mpk” value in the test on Aβ 40 in rat CSF was 69%. The “% Aβ 40 reduction in rat brain at 10 mpk” value in the test with Aβ 40 in rat brain came to 60%.

As to `CN(C)C(=O)/C=C/[C@]12C[C@H]1[C@@](CF)(c1cc(Nc3nccc4cc(OCc5ncco5)cnc34)ccc1F)N=C(N)S2` [Example 770, (2E)-3-((1R,5S,6S)-3-amino-5-(fluoromethyl)-5-(2-fluoro-5-((3-(1,3-oxazol-2-ylmethoxy)-1,7-naphthyridin-8-yl)amino)phenyl)-2-thia-4-azabicyclo[4.1.0]hept-3-en-1-yl)-N,N-dimethyl-2-propenamide], the IC50 at human recombinant BACE1 was determined as 0.00294 µM; at human recombinant BACE2 it was 0.143 µM; in test [1], 0.00281 µM; at Recombinant Cat D it was 311 µM. Further, the “% Aβ 40 reduction in rat CSF at 10 mpk” value in the test on Aβ 40 in rat CSF was 22%. The “% Aβ 40 reduction in rat brain at 10 mpk” value in the test with Aβ 40 in rat brain is 6%.

Regarding `COC[C@]12C[C@H]1[C@@](C)(c1cc(Nc3nccc4cc(OCc5ncco5)cnc34)cc(F)c1F)N=C(N)S2` [Example 727, N-(3-((1S,5S,6S)-3-amino-1-(methoxymethyl)-5-methyl-2-thia-4-azabicyclo[4.1.0]hept-3-en-5-yl)-4,5-difluorophenyl)-3-(1,3-oxazol-2-ylmethoxy)-1,7-naphthyridin-8-amine], the IC50 on human recombinant BACE1 amounted to 0.00798 µM; at human recombinant BACE2, 0.359 µM; in test [1], 0.00962 µM; on Recombinant Cat D it was 779 µM. In addition, in the test with Aβ 40 in rat CSF, the “% Aβ 40 reduction in rat CSF at 10 mpk” value amounted to 38%. The “% Aβ 40 reduction in rat brain at 10 mpk” value in the test with Aβ 40 in rat brain came to 18%.

For `COC[C@]12C[C@H]1[C@@](C)(c1cc(Nc3nccc4nc(OCc5ncco5)cnc34)cc(F)c1F)N=C(N)S2` [Example 631, N-(3-((1S,5S,6S)-3-amino-1-(methoxymethyl)-5-methyl-2-thia-4-azabicyclo[4.1.0]hept-3-en-5-yl)-4,5-difluorophenyl)-2-(1,3-oxazol-2-ylmethoxy)pyrido[3,4-b]pyrazin-5-amine], the IC50 on human recombinant BACE1 was determined as 0.00173 µM; on human recombinant BACE2 it was 0.055 µM; in test [1] it was 0.00325 µM; at Recombinant Cat D, 475 µM. For the same compound, the “% Aβ 40 reduction in rat CSF at 10 mpk” value in the test with Aβ 40 in rat CSF is recorded as 52%. In addition, in the test with Aβ 40 in rat brain, the “% Aβ 40 reduction in rat brain at 10 mpk” value amounted to 47%.

Turning to `C[C@]1(c2cc(NC(=O)c3ccc(OCC(F)(F)F)cn3)ccc2F)N=C(N)S[C@@]2(CF)C[C@H]21` [Example 697, N-(3-((1S,5S,6S)-3-amino-1-(fluoromethyl)-5-methyl-2-thia-4-azabicyclo[4.1.0]hept-3-en-5-yl)-4-fluorophenyl)-5-(2,2,2-trifluoroethoxy)-2-pyridinecarboxamide], the IC50 on human recombinant BACE1 is 0.00629 µM; at human recombinant BACE2, 0.338 µM; in test [1], 0.0315 µM; on Recombinant Cat D it was over 400 µM. Besides, the “% Aβ 40 reduction in rat CSF at 10 mpk” value in the test with Aβ 40 in rat CSF was found to be 35%. For the same compound, in the test with Aβ 40 in rat brain, the “% Aβ 40 reduction in rat brain at 10 mpk” value was 13%.

Turning to `C#CCOc1cnc(C(=O)Nc2cnc(OC)c([C@@]3(C)N=C(N)S[C@@]4(CF)C[C@H]43)c2)cn1` [Example 612, N-(5-((1S,5S,6S)-3-amino-1-(fluoromethyl)-5-methyl-2-thia-4-azabicyclo[4.1.0]hept-3-en-5-yl)-6-methoxy-3-pyridinyl)-5-(2-propyn-1-yloxy)-2-pyrazinecarboxamide], the IC50 at human recombinant BACE1 worked out at 0.00115 µM; at human recombinant BACE2, 0.0544 µM; in test [1], 0.00103 µM; on Recombinant Cat D, 196 µM. In addition, the “% Aβ 40 reduction in rat CSF at 10 mpk” value with Aβ 40 in rat CSF worked out at 84%. Further, in the test with Aβ 40 in rat brain, the “% Aβ 40 reduction in rat brain at 10 mpk” value was determined as 82%.

As for `C[C@]1(c2cc(Nc3ncnc4cc(OCc5ncco5)cnc34)cc(F)c2F)N=C(N)S[C@@]2(CF)C[C@H]21` [Example 808, N-(3-((1S,5S,6S)-3-amino-1-(fluoromethyl)-5-methyl-2-thia-4-azabicyclo[4.1.0]hept-3-en-5-yl)-4,5-difluorophenyl)-7-(1,3-oxazol-2-ylmethoxy)pyrido[3,2-d]pyrimidin-4-amine], the IC50 on human recombinant BACE1 turned out to be 0.000866 µM; at human recombinant BACE2, 0.0383 µM; in test [1] it was 0.00111 µM; at Recombinant Cat D, 127 µM. Moreover, in the test on Aβ 40 in rat CSF, the “% Aβ 40 reduction in rat CSF at 10 mpk” value is recorded as 44%. In addition, in the test with Aβ 40 in rat brain, the “% Aβ 40 reduction in rat brain at 10 mpk” value is 26%.

For `COC[C@]12C[C@H]1[C@@](C)(c1cc(Nc3nccc4cc(OCc5cocn5)cnc34)cc(F)c1F)N=C(N)S2` [Example 728, N-(3-((1S,5S,6S)-3-amino-1-(methoxymethyl)-5-methyl-2-thia-4-azabicyclo[4.1.0]hept-3-en-5-yl)-4,5-difluorophenyl)-3-(1,3-oxazol-4-ylmethoxy)-1,7-naphthyridin-8-amine], the IC50 at human recombinant BACE1 stood at 0.0238 µM; on human recombinant BACE2, 0.553 µM; in test [1], 0.0127 µM; at Recombinant Cat D, 859 µM. Besides, in the test on Aβ 40 in rat CSF, the “% Aβ 40 reduction in rat CSF at 10 mpk” value turned out to be 31%. Further, in the test on Aβ 40 in rat brain, the “% Aβ 40 reduction in rat brain at 10 mpk” value amounted to 23%.

With `N#Cc1ccc(C(=O)Nc2cc(F)c(F)c([C@@]3(CF)N=C(N)S[C@H]4C[C@H]43)c2)nc1` [Example 11, N-(3-((1S,5S,6S)-3-amino-5-(fluoromethyl)-2-thia-4-azabicyclo[4.1.0]hept-3-en-5-yl)-4,5-difluorophenyl)-5-cyano-2-pyridinecarboxamide], the IC50 on human recombinant BACE1 (BACE1 FRET enzyme assay) was 0.0104 µM; on human recombinant BACE2 (BACE2 FRET enzyme assay) it was 0.0275 µM; in test [1] (BACE1 cell-based assay) it was 0.0119 µM; on Recombinant Cat D (Cathepsin D FRET enzyme assay) it was over 400 µM. Further, the “% Aβ 40 reduction in rat CSF (3 mpk)” value with Aβ 40 in rat CSF is recorded as 41 (3 mpk) %. Besides, the “% Aβ 40 reduction in rat brain (3 mpk)” value in the test on Aβ 40 in rat brain is given as 25 (3 mpk) %.
